Counter-ions that a name gives are not always drawn. Like-named read-outs stand apart in the source and are kept apart here.
Assays:
[1] = biological target: T1, CYP2D6 (Homo sapiens, UniProt P10635); assay: Cytochrome P450 inhibition assay (P450-Glo) CYP2D6; type: in vitro ADME; conditions: compounds 10 μM; miltefosine 10 μM or 1 μM
T1 construct: purchased Corning Inc; host or cells: baculovirus-infected insect cells
From the text: (§1) Cytochrome (CYP) P450 inhibition assay: These assays made use of microsomal preparations of CYP450 (1A2, 2C9, 2C19, 2D6 and 3A4) from baculovirus-infected insect cells (Corning Inc., Corning, NY, USA) and cytochrome c reductase (and cytochrome b5 for CYP450 3A4). For detection of CYP450 activity, the luminescence-based P450-Glo (Promega Corp., Madison, WI, USA) assay system was used that contained a luminogenic CYP450 substrate, lyophilized luciferin detection reagent and reconstitution buffer. The substrates were luciferin derivatives of CYP450-specific substrates that produce (4S)-4,5-dihydro-2-(6-hydroxybenzothiazolyl)-4-thiazolecarboxylic acid (D-luciferin) after cleavage by CYP450 (CYP450 3A4, luciferin-IPA; CYP450 2C19, luciferin-H EGE; CYP450 2C9, luciferin-H; CYP450 2D6, luciferin-ME EGE; CYP450 1A2, luciferin-1A2). CYP450 reactions were initiated by addition of the NADPH regeneration system to the enzyme–substrate mixture with the luciferin detection reagent stopping the reaction and the D-luciferin being converted to oxyluciferin under the production of light being proportional to the CYP450 activity. The CYP450 assays were performed using the Tecan Fluent liquid-handling automation platform (Tecan Group Ltd., Mannedorf, Switzerland) in the 384-well assay format. Compounds were added into an empty 384-well plate (100 nL/well in 1% v/v DMSO) using the Echo 550 Liquid Handler followed by the addition of 5 μL/well of the CYP450/substrate mixture and incubation for 30 min at 37 °C, after which the reaction was initiated by the addition of the 5 μL/well NADPH regeneration system. After a further 30-min incubation at 37 °C, the CYP450 reaction was stopped and the luciferase reaction was simultaneously initiated by addition of 10 μL/well of luciferin detection reagent, followed by an additional 30-min incubation at 37 °C. The luminescence signal was detected using an Infinite M1000 PRO plate reader (Tecan Group Ltd., Mannedorf, Switzerland). The NCs yielded 0% inhibition (1% v/v DMSO) and standard CYP450 specific inhibitors were used as positive controls, yielding 100% inhibition (CYP450 1A2, alpha-naphthoflavone; CYP450 2C9, sulfaphenazole; CYP450 2C19, troglitazone; CYP450 2D6, quinidine; CYP450 3A4, ketoconazole).
(§2) Data analysis: The screening data were obtained in triplicate and analysed using ActivityBase (IDBS, Guildford, UK), and outlier elimination in the control wells was performed using the 3-sigma method. Unless stated, dose–response experiments were performed in the 11-point format with the IC50 value, Hill slope, minimum signal and maximum signal for each dose–response curve obtained using a four-parameter logistic fit in the XE module of ActivityBase (IDBS).

[2] = system: L. infantum MHOM/TN/80/LEM235 intracellular amastigotes; assay: Activity against L. infantum MHOM/TN/80/LEM235 intramacrophage amastigotes (infected THP-1, Giemsa staining); type: cell-based, Leishmania infantum; conditions: for Selectivity Index CC50/IC50: CC50 THP-1 / IC50 L. infantum MHOM/TN/80/LEM235; for IC50: Leishmania infantum, read-out: L. infantum MHOM/TN/80/LEM235 intracellular amastigotes IC50 ± SD
Protocol: THP-1 cells were differentiated with […] retinoic acid (Sigma, Saint Louis, MI, USA) for 3 days at 37 °C and 5% CO2. Infection of THP-1 cells with promastigotes was achieved by mixing the THP-1 and the parasite cultures at a ratio of 1:4 and incubation at 37 °C and 5% CO2. The next day cells were washed by centrifugation at 400 × g for 10 min, the pellet was resuspended in RPMI medium, and the suspension was overlaid with an equal volume of Histopaque 1077 (Invitrogen, Waltham, MA, USA). The free promastigotes were removed by centrifugation at 1000 × g for 20 min. The cell layer was washed with PBS twice and resuspended in RPMI at 4 × 10^5 cells/mL. Infection rate was assessed microscopically by Giemsa staining of the infected THP-1 suspension. An amount of 200 µL of infected THP-1 was plated in a 24-well tissue culture plate (Cellstar®, Greiner) (Sigma-Aldrich Chemie GMBH, Taufkirchen, Germany) and mixed with an equal volume of the appropriate compound concentration (compounds were dissolved in DMSO/ethanol, 50/50 v/v, to a final concentration of 65 mM and linear 5-fold dilutions ranging from 100 to 0.8 µM were done in the culture medium). Incubation proceeded for 72 h at 37 °C and 5% CO2, and the percentage of infected cells was monitored microscopically after Giemsa staining.

[3] = biological target: T2, Aurora B kinase (Homo sapiens, UniProt Q96GD4); assay: Aurora B kinase assay (ADP-Glo); type: biochemical; conditions: compounds 10 μM; miltefosine 10 μM or 1 μM; read-out: % inhibition ± SD at 10 μΜ Aurora B
T2 construct: purchased Promega Corp
T2 sequence (Q96GD4 whole entry): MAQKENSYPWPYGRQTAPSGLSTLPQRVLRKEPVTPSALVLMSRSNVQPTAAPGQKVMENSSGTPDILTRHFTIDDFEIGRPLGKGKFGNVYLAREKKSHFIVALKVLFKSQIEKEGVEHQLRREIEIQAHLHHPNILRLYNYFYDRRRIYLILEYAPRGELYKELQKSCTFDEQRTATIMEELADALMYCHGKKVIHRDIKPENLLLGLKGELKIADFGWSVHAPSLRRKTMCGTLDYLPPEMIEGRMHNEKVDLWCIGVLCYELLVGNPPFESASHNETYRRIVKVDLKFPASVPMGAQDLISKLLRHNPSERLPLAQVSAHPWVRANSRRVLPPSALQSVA
Protocol: Aurora B kinase assay: Inhibition of Aurora B kinase was determined using the ADP-Glo Kinase Enzyme System (Promega Corp., Madison, WI, USA). The positive control was SU6656 at a final concentration of 1 μM, with the NC being DMSO at the same concentration (v/v). An enzyme master mix containing 1 × buffer, 50 μM DTT and 17.5 ng/μL ([…]) Aurora B (all reagents provided in the kit) was prepared. A substrate master mix containing 1 × buffer, 36 μM adenosine triphosphate (ATP) and 7.5 ng/μL (15 ng/well) myelin basic protein (MBP) as a substrate (buffer and MBP were provided in the Aurora B Kinase Enzyme System; ultrapure ATP was provided in the ADP-Glo Kinase Assay System) was prepared. Two microliters of the enzyme master mix and 2 μL of the substrate master mix were added to each well of a 384-well low-volume plate. The plate was sealed using Thermowell sealing tape (Corning Inc., Corning, NY, USA) and incubated for 45 min at rt. The enzymatic reaction was stopped by adding 4 μL of ADP-Glo reagent (provided in the ADP-Glo Kinase Assay System) and the plate sealed using Thermowell sealing tape and incubated for 40 min at rt. Following this, 8 μL of detection reagent was added to each well, and the plate was sealed again and incubated for 45 min at rt, with the luminescence measured using the EnVision Multilabel 2103 Reader (PerkinElmer, Waltham, MA. USA). DMSO concentration was tolerated up to 2% v/v final.

[4] = biological target: T3, CYP2C9 (Homo sapiens, UniProt P11712); assay: Cytochrome P450 inhibition assay (P450-Glo) CYP2C9; type: in vitro ADME; conditions: compounds 10 μM; miltefosine 10 μM or 1 μM
T3 construct: purchased Corning Inc; host or cells: baculovirus-infected insect cells
T3 sequence (P11712 whole entry): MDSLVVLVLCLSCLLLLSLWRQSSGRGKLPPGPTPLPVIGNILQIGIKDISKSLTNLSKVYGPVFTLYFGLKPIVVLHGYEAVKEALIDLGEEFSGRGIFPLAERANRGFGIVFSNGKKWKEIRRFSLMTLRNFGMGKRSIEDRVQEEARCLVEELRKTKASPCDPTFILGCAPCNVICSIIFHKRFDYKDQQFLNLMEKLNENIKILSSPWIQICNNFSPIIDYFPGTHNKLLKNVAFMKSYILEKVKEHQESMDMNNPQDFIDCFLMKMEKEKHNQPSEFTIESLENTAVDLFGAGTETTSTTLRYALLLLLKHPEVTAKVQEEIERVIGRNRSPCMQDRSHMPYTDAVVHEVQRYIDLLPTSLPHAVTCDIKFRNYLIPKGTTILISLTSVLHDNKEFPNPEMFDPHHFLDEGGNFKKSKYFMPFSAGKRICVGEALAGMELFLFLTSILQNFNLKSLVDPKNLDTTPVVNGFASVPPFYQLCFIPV
From the text: as §1, §2

[5] = biological target: T4, CYP3A4 (Homo sapiens, UniProt P08684); assay: Cytochrome P450 inhibition assay (P450-Glo) CYP3A4; type: in vitro ADME; conditions: compounds 10 μM; miltefosine 10 μM or 1 μM
T4 construct: purchased Corning Inc; host or cells: baculovirus-infected insect cells
T4 sequence (P08684 2-503 limits assumed): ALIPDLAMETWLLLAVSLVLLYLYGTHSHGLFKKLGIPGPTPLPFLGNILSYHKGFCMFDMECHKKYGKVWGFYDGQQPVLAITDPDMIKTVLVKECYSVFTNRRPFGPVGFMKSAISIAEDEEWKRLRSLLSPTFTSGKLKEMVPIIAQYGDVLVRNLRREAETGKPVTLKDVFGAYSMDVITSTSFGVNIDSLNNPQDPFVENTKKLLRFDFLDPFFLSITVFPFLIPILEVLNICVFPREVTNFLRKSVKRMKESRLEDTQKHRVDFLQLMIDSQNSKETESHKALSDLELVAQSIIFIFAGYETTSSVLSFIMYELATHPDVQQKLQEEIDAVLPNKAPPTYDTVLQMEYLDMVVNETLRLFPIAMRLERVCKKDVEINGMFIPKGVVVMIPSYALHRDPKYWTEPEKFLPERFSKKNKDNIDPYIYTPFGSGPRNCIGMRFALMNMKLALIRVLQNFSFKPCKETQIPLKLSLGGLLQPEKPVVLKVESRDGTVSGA
From the text: as §1, §2

T1 sequence (P10635 whole entry): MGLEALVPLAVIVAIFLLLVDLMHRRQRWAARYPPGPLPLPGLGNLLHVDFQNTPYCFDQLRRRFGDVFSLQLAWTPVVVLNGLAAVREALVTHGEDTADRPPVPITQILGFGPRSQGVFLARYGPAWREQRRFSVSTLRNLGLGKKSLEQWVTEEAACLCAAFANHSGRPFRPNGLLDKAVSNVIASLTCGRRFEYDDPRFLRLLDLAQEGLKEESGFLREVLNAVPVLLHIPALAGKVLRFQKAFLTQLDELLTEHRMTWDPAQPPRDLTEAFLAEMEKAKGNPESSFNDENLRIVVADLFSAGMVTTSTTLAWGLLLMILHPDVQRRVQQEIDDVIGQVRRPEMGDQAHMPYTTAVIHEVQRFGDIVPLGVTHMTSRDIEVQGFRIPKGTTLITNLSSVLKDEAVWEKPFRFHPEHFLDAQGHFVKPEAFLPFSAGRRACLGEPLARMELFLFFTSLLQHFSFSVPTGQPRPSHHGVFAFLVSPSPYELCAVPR

Row | Compound | % inhibition ± SD at 10 μΜ CYP2D6 [1] | Selectivity Index CC50/IC50 [2] | IC50 ([2]; infected THP-1 cells, 72 h) [µM] | inhibition at 10 µM [3] [%] | % inhibition ± SD at 10 μΜ CYP2C9 [4] | % inhibition ± SD at 10 μΜ CYP3A4 [5] | IC50 ([2]; THP-1, 72 h) [µM]
1 | CCCCCc1cn(CCCCCCCCCCCOP(=O)([O-])OCC[N+](C)(C)C)nn1 [Compound 25, 11-(4-pentyl-1H-1,2,3-triazol-1-yl)undecyl (2-(trimethylammonio)ethyl) phosphate inner salt] | –37.71% | > 10.7 | 9.33 ± 0.99 | -10.3 | –23.11% | –20.13% | –
2 | C[N+](C)(C)CCOP(=O)([O-])OCCCCCCCCCCCn1cc(CC2CCCC2)nn1 [Compound 28, 11-(4-(cyclopentylmethyl)-1H-1,2,3-triazol-1-yl)undecyl (2-(trimethylammo nio)ethyl) phosphate inner salt] | –56.57% | > 66.7 | 1.5 ± 0.4 | -11.7 | –23.46% | –33.70% | –
3 | C[N+](C)(C)CCOP(=O)([O-])OCCCCCCCCCCCn1cc(CC2CCCCC2)nn1 [Compound 29, 11-(4-(cyclohexylmethyl)-1H-1,2,3-triazol-1-yl)undecyl (2-(trimethylammonio)ethyl) phosphate inner salt] | –46.97% | > 200 | 0.5 ± 0.2 | -6.17 | –22.63% | –33.59% | –
4 | C[N+](C)(C)CCOP(=O)([O-])OCCCCCn1cc(CCCCCCCCNC(=O)OCc2ccccc2)nn1 [Compound 31, 5-(4-(8-(((benzyloxy)carbonyl)amino)octyl)-1H-1,2,3-triazol-1-yl)pentyl (2-(trimethylammonio)ethyl) phosphate inner salt] | 11.06% | – | – | – | 8.95% | –7.33% | –
5 | C[N+](C)(C)CCCOP(=O)([O-])OCCCCCCCCCCCn1cc(CC2CCCCC2)nn1 [Compound 33, 11-(4-(cyclohexylmethyl)-1H-1,2,3-triazol-1-yl)undecyl (3-(trimethylammonio)propyl) phosphate inner salt] | 9.87±6.48% | – | – | – | 19.72% | 7.61 ± 9.09% | –
6 | C[N+](C)(C)CCOP(=O)([O-])OCCCCCCCCCCCn1cc(CCCCCCCCC(=O)O)nn1 [Compound 34, 11-(4-(8-carboxyoctyl)-1H-1,2,3-triazol-1-yl)undecyl (2-(trimethylammonio)ethyl) phosphate inner salt] | 23.08% | – | – | – | 18.94% | 19.27% | –
7 | C[N+](C)(C)CCOP(=O)([O-])OCCCCCn1cc(CCCCCCCCN)nn1 [Compound 35, 5-(4-(8-aminooctyl)-1H-1,2,3-triazol-1-yl)pentyl (2-(trimethylammonio)ethyl) phosphate inner salt] | 7.26% | – | – | – | 2.57% | –8.64% | –
8 | CCCCCCCCc1noc(CCCCCOP(=O)([O-])OCC[N+](C)(C)C)n1 [Compound 53, 5-(3-octyl-1,2,4-oxadiazol-5-yl)pentyl (2-(trimethylammonio)ethyl) phosphate inner salt] | –26.41% | – | – | – | 5.45% | –12.40% | –
9 | CCCCCCCCc1noc(CCCCCCCCCCOP(=O)([O-])OCC[N+](C)(C)C)n1 [Compound 54, 10-(3-octyl-1,2,4-oxadiazol-5-yl)decyl (2-(trimethylammonio)ethyl) phosphate inner salt] | 6.07% | – | – | – | – | 13.88% | –
10 | CCCCCCCc1nnc(CCCCCCCCCCOP(=O)([O-])OCC[N+](C)(C)C)o1 [Compound 65, 10-(5-heptyl-1,3,4-oxadiazol-2-yl)decyl (2-(trimethylammonio)ethyl) phosphate inner salt] | –30.44% | – | – | – | 28.32% | –2.44% | –
11 | CCCCCCCCCCCCCCCCOP(=O)([O-])OCC[N+](C)(C)C [Miltefosine, hexadecylphosphocholine, reference compound] | 30.83% | 4.9 | – | -12.5 | –0.80% | 8.39% | 6.68 ± 0.96

From paper PMC8305768, “Design, Synthesis and Antiparasitic Evaluation of Click Phospholipids” (Molecules, 2021)
